Test results taken from ChEMBL document CHEMBL4229413, “Identification by Inverse Virtual Screening of magnolol-based scaffold as new tankyrase-2 inhibitors” (Bioorg Med Chem, 2018).
The source made the active and inactive calls. No cut-off for these calls is given here.

Assays:
[1] = target: Casein kinase II alpha/beta (Homo sapiens, UniProt P67870+P68400); assay: Binding affinity to recombinant human CK2alpha/beta expressed in Escherichia coli by surface plasmon resonance analysis
[2] = target: Poly [ADP-ribose] polymerase 1 (Homo sapiens, UniProt P09874); assay: Binding affinity to recombinant human PARP1 expressed in baculovirus infected Sf9 cells by surface plasmon resonance analysis
[3] = target: T1, Poly [ADP-ribose] polymerase tankyrase-1 (Homo sapiens, UniProt O95271); assay: Binding affinity to recombinant human N-terminal GSt-tagged TNKS1 (1000 to 1328 residues) expressed in baculovirus infected Sf9 cells by surface plasmon resonance analysis
T1 sequence (O95271 whole entry): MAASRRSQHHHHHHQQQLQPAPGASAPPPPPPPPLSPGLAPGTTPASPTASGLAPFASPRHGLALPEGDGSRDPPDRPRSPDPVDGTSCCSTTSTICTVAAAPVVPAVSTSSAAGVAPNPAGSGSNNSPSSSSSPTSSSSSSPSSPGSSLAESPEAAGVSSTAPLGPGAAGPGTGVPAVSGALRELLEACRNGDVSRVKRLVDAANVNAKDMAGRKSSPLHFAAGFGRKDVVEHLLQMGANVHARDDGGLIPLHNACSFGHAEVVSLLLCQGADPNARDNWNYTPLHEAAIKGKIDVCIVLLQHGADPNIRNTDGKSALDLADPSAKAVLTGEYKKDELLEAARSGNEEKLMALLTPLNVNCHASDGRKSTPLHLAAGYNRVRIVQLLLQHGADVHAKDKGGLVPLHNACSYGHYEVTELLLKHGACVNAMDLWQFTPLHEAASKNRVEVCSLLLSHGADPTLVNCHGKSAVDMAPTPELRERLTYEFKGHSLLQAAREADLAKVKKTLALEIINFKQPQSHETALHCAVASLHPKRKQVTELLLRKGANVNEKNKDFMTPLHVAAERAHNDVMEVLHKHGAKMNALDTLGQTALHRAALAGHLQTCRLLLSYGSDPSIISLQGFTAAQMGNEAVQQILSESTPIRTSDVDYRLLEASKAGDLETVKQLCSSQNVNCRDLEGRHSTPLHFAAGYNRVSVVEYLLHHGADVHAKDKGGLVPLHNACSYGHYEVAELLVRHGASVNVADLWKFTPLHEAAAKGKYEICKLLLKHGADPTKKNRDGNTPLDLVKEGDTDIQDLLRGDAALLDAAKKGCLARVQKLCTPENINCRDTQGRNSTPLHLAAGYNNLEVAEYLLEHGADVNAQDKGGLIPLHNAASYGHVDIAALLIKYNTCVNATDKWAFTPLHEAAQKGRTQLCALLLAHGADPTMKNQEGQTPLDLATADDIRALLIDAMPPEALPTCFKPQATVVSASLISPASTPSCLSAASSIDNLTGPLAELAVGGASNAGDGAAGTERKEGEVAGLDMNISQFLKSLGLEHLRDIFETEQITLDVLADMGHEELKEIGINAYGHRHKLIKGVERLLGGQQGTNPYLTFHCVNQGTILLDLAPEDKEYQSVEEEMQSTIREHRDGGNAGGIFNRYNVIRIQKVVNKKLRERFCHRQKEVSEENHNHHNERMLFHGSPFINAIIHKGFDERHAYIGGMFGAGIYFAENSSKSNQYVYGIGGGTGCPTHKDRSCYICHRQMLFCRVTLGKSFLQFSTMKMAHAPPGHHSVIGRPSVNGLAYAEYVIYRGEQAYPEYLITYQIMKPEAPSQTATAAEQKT

[4] = target: T2, Poly [ADP-ribose] polymerase tankyrase-2 (Homo sapiens, UniProt Q9H2K2); assay: Binding affinity to recombinant human N-terminal His-tagged TNKS2 (Ser959 to Gly1166 residues) expressed in Escherichia coli by surface plasmon resonance analysis
T2 sequence (Q9H2K2 whole entry): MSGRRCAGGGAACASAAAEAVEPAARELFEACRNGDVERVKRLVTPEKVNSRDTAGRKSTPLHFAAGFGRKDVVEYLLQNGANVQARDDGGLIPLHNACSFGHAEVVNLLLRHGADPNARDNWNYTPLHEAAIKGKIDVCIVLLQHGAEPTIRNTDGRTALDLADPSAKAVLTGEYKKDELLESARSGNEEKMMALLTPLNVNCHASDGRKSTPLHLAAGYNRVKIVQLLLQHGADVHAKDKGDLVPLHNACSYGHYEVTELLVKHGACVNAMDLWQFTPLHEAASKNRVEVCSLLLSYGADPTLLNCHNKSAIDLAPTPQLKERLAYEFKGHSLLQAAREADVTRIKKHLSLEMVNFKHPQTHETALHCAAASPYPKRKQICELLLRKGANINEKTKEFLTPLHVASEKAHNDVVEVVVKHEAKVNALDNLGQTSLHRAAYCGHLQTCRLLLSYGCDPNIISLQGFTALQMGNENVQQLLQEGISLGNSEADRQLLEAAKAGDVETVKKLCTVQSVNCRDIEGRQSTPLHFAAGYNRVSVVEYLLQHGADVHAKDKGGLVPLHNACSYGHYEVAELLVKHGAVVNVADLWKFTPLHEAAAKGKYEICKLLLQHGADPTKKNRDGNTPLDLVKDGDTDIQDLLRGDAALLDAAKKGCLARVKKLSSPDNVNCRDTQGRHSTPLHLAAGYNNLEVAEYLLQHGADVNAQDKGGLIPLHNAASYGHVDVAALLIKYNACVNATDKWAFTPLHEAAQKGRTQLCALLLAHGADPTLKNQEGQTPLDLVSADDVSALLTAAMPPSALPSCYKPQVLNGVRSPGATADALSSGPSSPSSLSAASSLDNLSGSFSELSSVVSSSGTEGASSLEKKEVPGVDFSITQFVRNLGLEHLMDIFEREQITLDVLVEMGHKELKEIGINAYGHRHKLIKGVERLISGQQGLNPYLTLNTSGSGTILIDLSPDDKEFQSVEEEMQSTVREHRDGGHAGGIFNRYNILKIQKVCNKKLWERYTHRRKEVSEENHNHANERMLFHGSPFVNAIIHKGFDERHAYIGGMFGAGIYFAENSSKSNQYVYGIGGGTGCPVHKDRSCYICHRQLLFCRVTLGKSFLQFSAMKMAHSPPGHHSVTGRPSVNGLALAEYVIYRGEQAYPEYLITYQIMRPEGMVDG

A549 [5] = assay: cells; details: Homo sapiens, A549, 72 h
Description: (§1) Growth inhibition of human A549 cells after 72 hrs by MTT assay

[6] = target: T3, Bromodomain-containing protein 9 (Homo sapiens) (UniProt Q9H8M2); assay: Binding affinity to BRD9 (unknown origin) by surface plasmon resonance analysis
T3 sequence (whole entry): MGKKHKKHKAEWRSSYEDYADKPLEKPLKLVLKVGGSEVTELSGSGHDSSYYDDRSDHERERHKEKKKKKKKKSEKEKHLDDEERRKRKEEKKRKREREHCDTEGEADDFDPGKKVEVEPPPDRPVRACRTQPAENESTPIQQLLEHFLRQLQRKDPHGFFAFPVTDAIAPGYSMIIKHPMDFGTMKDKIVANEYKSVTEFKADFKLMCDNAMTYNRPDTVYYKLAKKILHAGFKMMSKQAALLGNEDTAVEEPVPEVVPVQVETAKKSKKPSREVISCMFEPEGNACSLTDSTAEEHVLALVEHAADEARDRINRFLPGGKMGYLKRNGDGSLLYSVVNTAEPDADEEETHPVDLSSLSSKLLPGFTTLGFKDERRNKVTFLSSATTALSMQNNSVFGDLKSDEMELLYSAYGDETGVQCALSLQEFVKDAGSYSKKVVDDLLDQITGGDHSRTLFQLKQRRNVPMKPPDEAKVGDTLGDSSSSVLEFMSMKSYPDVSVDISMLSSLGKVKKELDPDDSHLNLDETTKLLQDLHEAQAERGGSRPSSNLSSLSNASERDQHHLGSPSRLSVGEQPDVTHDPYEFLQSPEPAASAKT

A549 [7] = assay: Antiproliferative activity against human A549 cells assessed as effect on cell viability at 100 uM after 72 hrs by MTT assay relative to control; format: functional
A549 [8] = system: A549
Description: as §1

Chain of Casein kinase II alpha/beta (P67870 whole entry): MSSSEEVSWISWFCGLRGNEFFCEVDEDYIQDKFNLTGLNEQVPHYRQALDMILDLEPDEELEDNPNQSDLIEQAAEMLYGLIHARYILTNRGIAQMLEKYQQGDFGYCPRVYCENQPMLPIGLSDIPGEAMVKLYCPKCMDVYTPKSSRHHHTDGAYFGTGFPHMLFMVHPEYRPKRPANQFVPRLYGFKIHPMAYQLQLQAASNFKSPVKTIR
Chain of Casein kinase II alpha/beta (P68400 whole entry): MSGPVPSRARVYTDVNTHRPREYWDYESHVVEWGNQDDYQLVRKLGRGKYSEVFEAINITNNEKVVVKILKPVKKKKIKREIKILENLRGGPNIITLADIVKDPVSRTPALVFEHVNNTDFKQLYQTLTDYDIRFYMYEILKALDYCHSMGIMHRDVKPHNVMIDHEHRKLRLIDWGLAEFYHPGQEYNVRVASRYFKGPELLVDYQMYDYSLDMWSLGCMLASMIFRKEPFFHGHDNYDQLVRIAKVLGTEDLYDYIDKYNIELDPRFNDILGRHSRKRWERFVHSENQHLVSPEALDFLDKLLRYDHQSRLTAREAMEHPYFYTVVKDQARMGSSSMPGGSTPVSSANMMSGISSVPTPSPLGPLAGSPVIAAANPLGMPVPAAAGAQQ
Chain of Poly [ADP-ribose] polymerase 1 (P09874 whole entry, the tested form may be a part): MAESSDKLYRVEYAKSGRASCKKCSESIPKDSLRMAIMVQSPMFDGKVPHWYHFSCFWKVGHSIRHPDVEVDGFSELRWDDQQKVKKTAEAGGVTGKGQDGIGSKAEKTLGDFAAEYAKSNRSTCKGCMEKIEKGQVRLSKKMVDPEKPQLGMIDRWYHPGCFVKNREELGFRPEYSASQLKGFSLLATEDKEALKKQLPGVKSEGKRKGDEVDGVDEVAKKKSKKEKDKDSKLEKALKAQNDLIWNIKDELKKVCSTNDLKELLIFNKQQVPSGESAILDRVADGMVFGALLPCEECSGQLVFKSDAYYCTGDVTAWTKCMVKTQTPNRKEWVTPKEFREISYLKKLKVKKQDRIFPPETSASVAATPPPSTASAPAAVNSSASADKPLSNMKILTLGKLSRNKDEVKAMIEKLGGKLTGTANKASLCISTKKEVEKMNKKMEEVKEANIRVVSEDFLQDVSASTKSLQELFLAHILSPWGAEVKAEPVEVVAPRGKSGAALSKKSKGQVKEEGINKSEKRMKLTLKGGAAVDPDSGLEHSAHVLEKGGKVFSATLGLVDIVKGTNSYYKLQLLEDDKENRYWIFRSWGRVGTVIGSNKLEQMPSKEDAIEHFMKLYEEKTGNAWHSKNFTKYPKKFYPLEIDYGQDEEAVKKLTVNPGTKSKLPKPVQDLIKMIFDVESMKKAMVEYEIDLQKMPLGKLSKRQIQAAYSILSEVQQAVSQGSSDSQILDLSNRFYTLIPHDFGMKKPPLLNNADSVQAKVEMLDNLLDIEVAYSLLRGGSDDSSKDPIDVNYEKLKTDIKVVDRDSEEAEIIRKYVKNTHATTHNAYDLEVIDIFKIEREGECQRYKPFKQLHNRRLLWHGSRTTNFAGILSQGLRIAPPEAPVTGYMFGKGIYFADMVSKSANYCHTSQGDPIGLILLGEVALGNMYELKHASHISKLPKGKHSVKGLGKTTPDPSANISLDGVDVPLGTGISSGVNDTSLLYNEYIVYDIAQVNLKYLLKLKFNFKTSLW

Compound | Kd [1] | Kd ([2]; sf9) | Kd ([3]; read-out: Kd) [nM] | Kd ([4]; read-out: Kd) [nM] | IC50 (A549 [5]) [nM] | Activity [6] | Kd ([3]; sf9) | Kd [4] | Kd ([2]; read-out: Kd) [nM] | IC50 (A549 [8]) | Activity (A549 [7])
C=CCc1ccc(O)c(-c2cc(CC=C)ccc2O)c1 [MAGNOLOL] | Not Active | Not Active | – | – | – | inactive | Not Active | Not Active | – | – | –
C=CCc1ccc(O)c(-c2cc(CC=C)cc(O)c2O)c1 | Not Active | – | 5260 | – | – | inactive | – | Not Active | 1250 | – | –
COc1cc(CCCOC(C)=O)cc(-c2cc(CCCOC(C)=O)cc(OC)c2O)c1O | Not Active | Not Active | – | 6.5 | – | inactive | Not Active | – | – | Not Active | 20 - 30%
Oc1nc(-c2ccc(C(F)(F)F)cc2)nc2c1CSCC2 | – | – | – | – | 12300 | – | – | – | – | – | –

The next lines start with results.

Kd [1] | Kd ([2]; sf9) | Kd ([3]; read-out: Kd) [nM] | Kd ([4]; read-out: Kd) [nM] | IC50 (A549 [5]) [nM] | Activity [6] | Kd ([3]; sf9) | Kd [4] | Kd ([2]; read-out: Kd) [nM] | IC50 (A549 [8]) | Compound | Activity (A549 [7])
Not Active | Not Active | 520 | 21 | 4700 | inactive | – | – | – | – | C=CCc1cc(O)c(O)c(-c2cc(CC=C)cc(OC)c2O)c1 | –
Not Active | Not Active | – | 18.5 | – | inactive | Not Active | – | – | Not Active | COc1cc(CCCO)cc(-c2cc(CCCO)cc(OC)c2O)c1O | 20 - 30%
